Measurements taken from patent publication US7070965B1, “Small molecule anticancer compounds and related production process” (priority 1998, dated 2006).
Converted amounts (≈) assume the structure as drawn.

Tests used:
[1] = system: DU-145 human prostate carcinoma; assay: Cytotoxicity ID50/ID75/ID90, trypan blue dye exclusion; type: cell-based; settings: 48 hours
Method: (§1) All cells in adherent culture were initiated at 5×10^4 cells/well in 96-well microplates and treated immediately with iso-C15 at different concentrations (0, 1.5, 3.0, 6.0, 15.0, 30.0, and 60.0 μg/ml) diluted with medium. Both untreated and solvent (NaOH and Tween 80) treated cells served as controls. The treated cells were incubated for 48 hours at 37° C. After incubation, the supernatants were removed and the cells were trypsinized and collected prior to viability assessment by trypan blue dye exclusion.
(§2) The ID50, ID75 and ID90 were determined in duplicate in every set of experiments, and each experiment was repeated three times under identical conditions. ID50, ID75 and ID90 were defined as the concentration of iso-C15 required to kill 50, 75 or 90%, respectively, of cells (compared with that in untreated cells) and computed using CalcuSyn for Windows software (Biosoft, Cambridge UK) based on Median Effect method by Dr. T. C. Chou.

[2] = system: HCT 116 human colon carcinoma; assay: as above; type: cell-based; settings: 48 hours
Method: as §1, §2

[3] = system: H1688 human small cell lung carcinoma; assay: as above; type: cell-based; settings: 48 hours
Method: as §1, §2

[4] = system: MCF-7 human breast adenocarcinoma; assay: as above; type: cell-based; settings: 48 hours
Method: as §1, §2

[5] = system: SNU-423 human hepatocellular carcinoma; assay: as above; type: cell-based; settings: 48 hours
Method: as §1, §2

[6] = system: DMBA-induced mammary cancer; assay: Chemoprevention of DMBA-induced mammary carcinogenesis in rats; type: in vivo, Sprague-Dawley rats; settings: 0.5 ml of 0.7% solution intragastric, five times a week, twenty weeks after DMBA
Method: 13-methyltetradecanoic acid (iso-C15) was prepared by dissolving in NaOH solution and then in 0.35% Tween 80 with pH 7.5.
Fifty female Sprague-Dawley rats were maintained on laboratory chow. At 50 days of age, rats were given a single dose (5 mg) of DMBA (Sigma Chemical Co., St. Louis. Mo.) via an intragastric tube. Seven days after DMBA administration, the rats were randomly divided into two groups of 25. Each rat in the control group was given 0.5 ml of 0.35% Tween 80 five times a week via an intragastric tube throughout the experiment, while each in the test group was given 0.5 ml iso-C15 solution of concentration 0.7%, five times a week. Food and water were available ad libitum. Twenty weeks after DMBA administration, all rats were scarified, and all palpable tumors were removed.

[7] = system: Human leukemia cell line K562; assay: MTT assay, inhibition of cell growth; type: cell-based; settings: for Inhibitory rate (%) on cell growth: 24 hours, dissolved with 10% ethanol, listed as extracted iso-C15
Method: (§3) MTT assay was performed to test the cytotoxicity. The K562 and SGC7901 cells were maintained in exponential growth in RPMI 1640 medium supplemented with 15% heat-inactivated newborn calf serum. The cells were plated at a density of 2×10^4 cells/100 μl medium/well into 96-well plate with medium containing samples in five final concentrations (7.5, 15, 30, 60 and 90 μg/ml) for iso-C15 (either synthesized or extracted) and one final concentration (30 μg/ml) for the others. The media in control wells contained no samples. The cells were incubated at 37° C. in a highly humidified incubator under 5% CO2 atmosphere for 24 hours. The supernatant was removed by fast inversion of the plate. 20 μl of 5 mg/ml MTT solution were added into each well. Incubation was continued for 4 hours. DMSO 100 μl/well was added and the plate was vibrated for 10 minutes. A570nm was read at the Immunoreader BioTek EL311S.
(§4) The inhibition rate (%)=1−(mean A570nm in test wells/mean A570nm in control wells)

[8] = system: human gastric cancer cell line SGC7901; assay: MTT assay, inhibition of cell growth; type: cell-based; settings: dissolved with 10% ethanol; for Inhibitory rate (%) on cell growth: 24 hours, listed as extracted iso-C15
Method: as §3, §4

H1688 cancer cells = assay: In situ cell death detection, POD; type: cell-based, human; settings: 60 μg/ml, 8 hours
From the text: (§5) In Situ Cell Death Detection Kit, POD (Mannheim Boehringer GmbH) was used to detect the individual apoptotic cells. Cleavage of genomic DNA during apoptosis may yield double-stranded, low molecular weight DNA fragments as well as single strand breaks in high molecular weight DNA. Those DNA strand breaks can be identified by labeling free 3′-OH termini with modified nucleotides in an enzymatic reaction. In this kit terminal deoxynucleotidyl transferase (TdT) is used to label free 3′-OH ends in genomic DNA with fluorescein-dUTP. The incorporated fluorescein is visualized under fluorescence microscope directly. The incorporated fluorescein can also bind to anti-fluorescein antibody POD and be detected by substrate reaction. Stained cells can be analyzed under light microscope.
(§6) Four human tumor cell lines, K-562 human leukemia, SNU-1 human gastric carcinoma cell lines, MCF-7 human breast adenocarcinoma and H1688 human small cell lung carcinoma cell lines, as well as Human PBLs were treated with iso-C15 (60 μg/ml).
(§7) H1688, K-562 and DU145 human cancer cells and normal human PBLs were added with POD and incubated 30 min at 37° C., washed three times with PBS, then reacted with substrate AEC and incubated for 10 min at room temperature. The cells were analyzed under light microscope. […] It is evidenced that iso-C15 induces apoptosis of cancer cells but not normal human cells.

K-562 leukemia cells = assay: In situ cell death detection, POD; type: cell-based, human; settings: 60 μg/ml, 2 and 4 hours
From the text: as §5, §6, §7

SMILES: CC(C)CCCCCCCCCCCC(=O)O [iso-C15, 13-methyltetradecanoic acid]
- ID75 [1]: 40.43 ± 5.72 µg/mL (≈ 167 µM)
- ID90 [1]: 81.87 ± 8.85 µg/mL (≈ 338 µM)
- ID75 [2]: 67.96 ± 8.25 µg/mL (≈ 280 µM)
- ID90 [2]: 108.65 ± 13.35 µg/mL (≈ 448 µM)
- ID75 [3]: 35.03 ± 3.59 µg/mL (≈ 145 µM)
- ID90 [3]: 61.37 ± 8.06 µg/mL (≈ 253 µM)
- ID75 [4]: 15.99 ± 1.28 µg/mL (≈ 66 µM)
- ID90 [4]: 25.49 ± 1.68 µg/mL (≈ 105 µM)
- ID75 [5]: 70.46 ± 9.36 µg/mL (≈ 291 µM)
- ID90 [5]: 120.77 ± 15.82 µg/mL (≈ 498 µM)
- No. of rats with tumors ([6]; 25 rats): 3
- Mean tumor weight [6]: 0.8 ± 1.3 g
- No. of tumors [6]: 4
- No. of tumors per rat [6]: 0.2 ± 0.1
- No. of tumors/tumor bearing rat [6]: 1.3 ± 0.5
- tumor incidence [6]: 12%
- Inhibitory rate (%) on cell growth ([7]; 7.5 μg/ml): 27.1%
- Inhibitory rate (%) on cell growth ([7]; 15 μg/ml): 51.2%
- Inhibitory rate (%) on cell growth ([7]; 30 μg/ml): 72.2%
- Inhibitory rate (%) on cell growth ([7]; 60 μg/ml): 83.7%
- Inhibitory rate (%) on cell growth ([7]; 90 μg/ml): 87.2%
- inhibition at 7.5 µg/mL ([7]; Homo sapiens, K562, 24 h, read-out: Inhibitory rate (%) on cell growth, 7.5 μg/ml, dissolved with 10% ethanol): 26.2%
- inhibition at 15 µg/mL ([7]; Homo sapiens, K562, 24 h, read-out: Inhibitory rate (%) on cell growth, 15 μg/ml, dissolved with 10% ethanol): 50.1%
- inhibition at 30 µg/mL ([7]; Homo sapiens, K562, 24 h, read-out: Inhibitory rate (%) on cell growth, 30 μg/ml, dissolved with 10% ethanol): 71.6%
- inhibition at 60 µg/mL ([7]; Homo sapiens, K562, 24 h, read-out: Inhibitory rate (%) on cell growth, 60 μg/ml, dissolved with 10% ethanol): 83.1%
- inhibition at 90 µg/mL ([7]; Homo sapiens, K562, 24 h, read-out: Inhibitory rate (%) on cell growth, 90 μg/ml, dissolved with 10% ethanol): 85.3%
- Inhibitory rate (%) on cell growth ([8]; 15 μg/ml): 28.1%
- Inhibitory rate (%) on cell growth ([8]; 30 μg/ml): 51.2%
- Inhibitory rate (%) on cell growth ([8]; 60 μg/ml): 62.1%
- Inhibitory rate (%) on cell growth ([8]; 90 μg/ml): 68.8%
- inhibition at 15 µg/mL ([8]; Homo sapiens, SGC-7901, 24 h, 15 μg/ml, read-out: Inhibitory rate (%) on cell growth): 27.5%
- inhibition at 30 µg/mL ([8]; Homo sapiens, SGC-7901, 24 h, 30 μg/ml, read-out: Inhibitory rate (%) on cell growth): 50.5%
- inhibition at 60 µg/mL ([8]; Homo sapiens, SGC-7901, 24 h, 60 μg/ml, read-out: Inhibitory rate (%) on cell growth): 63.1%
- inhibition at 90 µg/mL ([8]; Homo sapiens, SGC-7901, 24 h, 90 μg/ml, read-out: Inhibitory rate (%) on cell growth): 68.4%
- apoptotic cells stained, POD (H1688 cancer cells): apoptotic H1688 cancer cells (stained red) were found
- apoptotic cells stained, POD (K-562 leukemia cells): some cells started apoptosis (stained red) 2 hours after treatment
